Active and inactive are the calls of the source.
Tests used:
[1] = target: T1, Protein cereblon/Bromodomain-containing protein 4 (Homo sapiens) (UniProt O60885+Q96SW2); assay: Protac activity at BRD4/CRBN in AR-positive human 22Rv1 cells assessed as degradation of BRD4 by measuring downregulation of BRD4 expression level measured after 24 hrs by Western blot analysis; assay type: cell-based; conditions: dose 1-10000 nM, DDE = dose-dependent effect
DU-145 = assay: Antiproliferative activity against AR-negative human castration resistant DU-145 cells assessed as reduction in cell viability measured after 4 days by MTT assay; assay type: functional, cell-based; conditions: DU-145, 96 h
[2] = target: T1, Protein cereblon/Bromodomain-containing protein 4 (Homo sapiens); assay: Protac activity at BRD4/CRBN in AR-positive harmone sensitive human LNCaP cells assessed as degradation of BRD4 by measuring downregulation of BRD4 expression level at 1 nM by Western blot analysis; assay type: cell-based; conditions: time 2-48 hrs, TDE = time-dependent effect
[3] = target: T1, Protein cereblon/Bromodomain-containing protein 4 (Homo sapiens); assay: Protac activity at BRD4/CRBN in AR-positive human 22Rv1 cells assessed as degradation of BRD4 at 100 nM measured after 3 hrs in presence of cycloheximide by Western blot analysis; assay type: cell-based
VCaP [4] = assay: Downregulation of c-Myc […] expression level in AR-positive human VCaP cells measured after 24 hrs by Western blot analysis; assay type: functional, cell-based; conditions: dose 1-10000 nM, DDE = dose-dependent effect
CWR22R [5] = assay: Induction of cell cycle arrest in AR-positive human 22Rv1 cells assessed as downregulation of CDK4 expression at 100 to 1000 nM measured after 72 hrs by Western blot analysis; assay type: functional, cell-based; conditions: dose 100-1000 nM
VCaP [6] = assay: Downregulation of BMPR1B gene expression in AR-positive human VCaP cells at 100 nM measured after 24 hrs by RT-qPCR analysis; assay type: functional, cell-based
[7] = target: T1, Protein cereblon/Bromodomain-containing protein 4 (Homo sapiens); assay: Protac activity at BRD4/CRBN in AR-positive human VCaP cells assessed as degradation of BRD4 by measuring downregulation of BRD4 expression level measured after 24 hrs by Western blot analysis; assay type: cell-based; conditions: dose 1-10000 nM, DDE = dose-dependent effect
[8] = target: T1, Protein cereblon/Bromodomain-containing protein 4 (Homo sapiens); assay: Protac activity at BRD4/CRBN in AR-negative human castration resistant DU-145 cells assessed as degradation of BRD4 by measuring downregulation of BRD4 expression level at 1 nM by Western blot analysis; assay type: cell-based; conditions: time 2-48 hrs, TDE = time-dependent effect
CWR22R [9] = assay: Induction of apoptosis in AR-positive human 22Rv1 cells assessed as increase in early apoptotic cells measured after 72 hrs by Annexin V-FITC/PI staining based flow cytometry method; assay type: functional, cell-based; conditions: dose 100-1000 nM, DDE = dose-dependent effect
PC-3 = assay: Antiproliferative activity against AR-negative human castration resistant PC-3 cells assessed as reduction in cell viability measured after 4 days by MTT assay; assay type: functional, cell-based; conditions: PC-3, 96 h
CWR22R [10] = assay: Induction of cell cycle arrest in AR-positive human 22Rv1 cells assessed as accumulation of cells at G0/G1 phase at 100 to 1000 nM measured after 72 hrs by flow cytometry analysis; assay type: functional, cell-based; conditions: dose 100-1000 nM
MV4-11 = assay: Antiproliferative activity against human MV4-11 cells assessed as reduction in cell viability measured after 4 days by MTT assay; assay type: functional, cell-based; conditions: MV4-11, 96 h
CWR22R [11] = assay: Antiproliferative activity against AR-positive human 22Rv1 cells assessed as reduction in cell viability at 100 to 300 nM incubated for 3 days followed by compound washout and measured after 8 days; assay type: functional; conditions: dose 100-300 nM, time 3 day
LNCaP [12] = assay: Antiproliferative activity against AR-positive harmone sensitive human LNCaP cells assessed as reduction in cell viability measured after 4 days by MTT assay; assay type: functional, cell-based; conditions: 96 h
CWR22R [13] = assay: Induction of cell cycle arrest in AR-positive human 22Rv1 cells assessed as downregulation of cyclin E expression at 100 to 1000 nM measured after 72 hrs by Western blot analysis; assay type: functional, cell-based; conditions: dose 100-1000 nM
[14] = target: T1, Protein cereblon/Bromodomain-containing protein 4 (Homo sapiens); assay: Protac activity at BRD4/CRBN in AR-positive human 22Rv1 cells assessed as degradation of BRD4 by measuring downregulation of BRD4 expression level at 1 nM by Western blot analysis; assay type: cell-based; conditions: time 2-48 hrs, TDE = time-dependent effect
VCaP [15] = assay: Downregulation of ERG gene expression in AR-positive human VCaP cells at 100 nM measured after 24 hrs by RT-qPCR analysis; assay type: functional, cell-based
CWR22R [16] = assay: Induction of cell cycle arrest in AR-positive human 22Rv1 cells assessed as downregulation of CDK6 expression at 100 to 1000 nM measured after 72 hrs by Western blot analysis; assay type: functional, cell-based; conditions: dose 100-1000 nM
[17] = target: T1, Protein cereblon/Bromodomain-containing protein 4 (Homo sapiens); assay: Protac activity at BRD4/CRBN in AR-positive human VCaP cells assessed as degradation of BRD4 by measuring downregulation of BRD4 expression level at 1 nM by Western blot analysis; assay type: cell-based; conditions: time 2-48 hrs, TDE = time-dependent effect
[18] = target: Serine/threonine-protein kinase PLK1 (Homo sapiens, UniProt P53350); assay: Inhibition of recombinant full length human PLK1 using casein as substrate incubated for 40 mins in presence of [gamma-33P]-ATP by radiometric scintillation counting method
Chain of Serine/threonine-protein kinase PLK1 (P53350 whole entry): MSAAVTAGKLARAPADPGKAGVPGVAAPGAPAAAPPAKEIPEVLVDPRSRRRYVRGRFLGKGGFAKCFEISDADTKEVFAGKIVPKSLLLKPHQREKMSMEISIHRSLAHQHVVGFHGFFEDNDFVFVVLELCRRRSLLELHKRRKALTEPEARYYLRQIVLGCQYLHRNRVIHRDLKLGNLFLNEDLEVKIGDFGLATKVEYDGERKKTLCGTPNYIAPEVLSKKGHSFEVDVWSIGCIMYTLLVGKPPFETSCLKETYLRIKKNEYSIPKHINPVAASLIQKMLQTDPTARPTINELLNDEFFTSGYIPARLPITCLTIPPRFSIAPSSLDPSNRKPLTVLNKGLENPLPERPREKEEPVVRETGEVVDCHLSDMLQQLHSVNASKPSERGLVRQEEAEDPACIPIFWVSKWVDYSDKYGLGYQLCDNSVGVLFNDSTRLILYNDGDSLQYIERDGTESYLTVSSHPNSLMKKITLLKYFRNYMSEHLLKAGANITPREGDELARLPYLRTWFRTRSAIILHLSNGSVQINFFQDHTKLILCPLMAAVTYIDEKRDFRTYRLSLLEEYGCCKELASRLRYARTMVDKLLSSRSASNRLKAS

[19] = target: T1, Protein cereblon/Bromodomain-containing protein 4 (Homo sapiens); assay: Protac activity at BRD4/CRBN in AR-positive human VCaP cells assessed as degradation of BRD4 at 1 uM measured after 24 hrs in presence of MLN4924 by Western blot analysis; assay type: cell-based
[20] = target: T1, Protein cereblon/Bromodomain-containing protein 4 (Homo sapiens); assay: Protac activity at BRD4/CRBN in human VCaP cells assessed as degradation of BRD4 by measuring downregulation of BRD4 expression level at 10 nM incubated for 24 hrs by immunoblotting analysis; assay type: cell-based
CWR22R [21] = assay: Induction of cell cycle arrest in AR-positive human 22Rv1 cells assessed as downregulation of CDK2 expression at 100 to 1000 nM measured after 72 hrs by Western blot analysis; assay type: functional, cell-based; conditions: dose 100-1000 nM
VCaP [22] = assay: Downregulation of FKBP5 gene expression in AR-positive human VCaP cells at 100 nM measured after 24 hrs by RT-qPCR analysis; assay type: functional, cell-based
VCaP [23] = assay: Downregulation of PSA protein expression in AR-positive human VCaP cells at 100 nM measured after 48 hrs by Western blot analysis; assay type: functional, cell-based
VCaP [24] = assay: Downregulation of AR protein expression in AR-positive human VCaP cells at 100 nM measured after 48 hrs by Western blot analysis; assay type: functional, cell-based
CWR22R [25] = assay: Antiproliferative activity against AR-positive human 22Rv1 cells assessed as reduction in cell viability measured after 4 days by MTT assay; assay type: functional, cell-based; conditions: 22Rv1, 96 h
[26] = target: Bromodomain-containing protein 4 (Homo sapiens, UniProt O60885); assay: Inhibition of BRD4 (unknown origin) by alpha-screen assay
CWR22R [27] = assay: Induction of apoptosis in AR-positive human 22Rv1 cells assessed as upregulation of cleaved PARP level measured after 72 hrs by Annexin V-FITC/PI staining based flow cytometry method; assay type: functional, cell-based; conditions: dose 100-1000 nM, DDE = dose-dependent effect
VCaP [28] = assay: Antiproliferative activity against AR-positive human VCaP cells assessed as reduction in cell viability measured after 4 days by MTT assay; assay type: functional, cell-based; conditions: 96 h
[29] = target: T1, Protein cereblon/Bromodomain-containing protein 4 (Homo sapiens); assay: Protac activity at BRD4/CRBN in AR-negative human castration resistant DU-145 cells assessed as degradation of BRD4 by measuring downregulation of BRD4 expression level measured after 24 hrs by Western blot analysis; assay type: cell-based; conditions: dose 1-10000 nM, DDE = dose-dependent effect
[30] = target: T1, Protein cereblon/Bromodomain-containing protein 4 (Homo sapiens); assay: Protac activity at BRD4/CRBN in AR-positive human VCaP cells assessed as degradation of BRD4 at 1 uM measured after 24 hrs in presence of MG-132 by Western blot analysis; assay type: cell-based
LNCaP [31] = assay: Downregulation of c-Myc […] expression level in AR-positive harmone sensitive human LNCaP cells at 1 nM by Western blot analysis; assay type: functional, cell-based; conditions: time 2-48 hrs, TDE = time-dependent effect

T1 sequence (Q96SW2 whole entry, looked up, other chains not shown): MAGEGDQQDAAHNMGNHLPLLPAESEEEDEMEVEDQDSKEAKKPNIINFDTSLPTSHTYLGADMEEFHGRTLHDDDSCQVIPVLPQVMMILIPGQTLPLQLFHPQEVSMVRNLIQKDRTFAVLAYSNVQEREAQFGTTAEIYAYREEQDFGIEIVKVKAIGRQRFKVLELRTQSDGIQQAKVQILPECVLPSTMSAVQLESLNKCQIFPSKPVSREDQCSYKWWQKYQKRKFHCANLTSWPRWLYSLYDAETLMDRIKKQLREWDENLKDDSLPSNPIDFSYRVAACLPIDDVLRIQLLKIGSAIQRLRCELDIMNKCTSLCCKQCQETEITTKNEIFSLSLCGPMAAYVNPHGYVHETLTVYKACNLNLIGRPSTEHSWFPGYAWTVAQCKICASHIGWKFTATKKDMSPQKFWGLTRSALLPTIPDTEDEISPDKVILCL

CC[C@@H]1c2nnc(C)n2-c2cnc(Nc3ccc(C(=O)NC4CCN(C(=O)COc5cccc6c5C(=O)N(C5CCC(=O)NC5=O)C6=O)CC4)cc3OC)nc2N1CC1CCCCC1 (some centres undefined)
10000 nM: IC50 (DU-145)
100%: inhibition (INH) (CWR22R [11])
2440 nM: IC50 (PC-3)
53 nM: IC50 (CWR22R [25])
985 nM: IC50 [18]
21 nM: IC50 (LNCaP [12])
254 nM: IC50 [26]
active: Activity [1] Dde | Activity [2] Tde | Activity [3] | Activity (VCaP [4]) Dde | Activity (CWR22R [5]) | Activity (VCaP [6]) | Activity [7] Dde | Activity [8] Tde | Activity (CWR22R [9]) Dde | Activity (CWR22R [10]) | Activity (CWR22R [13]) | Activity [14] Tde | Activity (VCaP [15]) | Activity (CWR22R [16]) | Activity [17] Tde | Activity [19] | Activity [20] | Activity (CWR22R [21]) | Activity (VCaP [22]) | Activity (VCaP [23]) | Activity (VCaP [24]) | Activity (CWR22R [27]) Dde | Activity [29] Dde | Activity [30] | Activity (LNCaP [31]) Tde
16 nM: IC50 (VCaP [28])
3 nM: IC50 (MV4-11)

— ChEMBL document CHEMBL5143521, “Identification of a selective BRD4 PROTAC with potent antiproliferative effects in AR-positive prostate cancer based on a dual BET/PLK1 inhibitor” (Eur J Med Chem, 2022)
